Patent publication US11660326B2, “Bacterial-binding peptides for treatment of infectious diseases and related inflammatory processes” (priority 2018, dated 2023)

How the values were obtained:
[1] = Dynamic light scattering (DLS), hydrodynamic size of peptides in solution; format: physicochemical; details: 10 μg/mL in PBS, 25° C.
Procedure: FIG. 5. Analysis of the hydrodynamic size of CD6-derived peptides in solution. The dynamic light scattering (DLS) analysis of the hydrodynamic diameter of CD6 (PD1, PD2, PD3, and Pcons) and DMBT-1/SAG (pbs1) derived peptides (10 μg/mL) in PBS is shown. The y axis represents the relative intensity of the scattered light; the x axis denotes the hydrodynamic diameter of the particles present in the solution. One representative experiment of four performed is shown (left). The numeric values obtained for each peptide are also shown (right).
The hydrodynamic diameters of peptides (10 μg/mL in PBS) were measured at 25° C. in a Zetasizer Nano S from Malvern Instruments (Worcestershire, UK) equipped with a 633 nm HeNe laser, as described (Saenz A, et al., 2010, Fluidizing effects of C-reactive protein on lung surfactant membranes: protective role of surfactant protein A, FASEB J 24:3662-73). Four scans were recorded for each sample, and samples were analyzed in triplicate.

[2] = tested on: mice undergoing CLP-induced septic shock; assay: Mouse survival following CLP-induced septic shock; format: in vivo, C57BL/6J mice; details: for effect on mice survival, in words: CLP-induced sepsis, compared to saline-treated group; for survival: single 6 mg/kg i.v. at +1 h post CLP, FIG. 7
Procedure: FIG. 7. Comparative therapeutic effects of i.v. infused CD6-derived peptides on mouse survival following Cecal Ligation and Puncture (CLP)-induced sepsis. (A, B) C57BL/6J mice were i.v. infused with saline (n=25) or single 6 mg/kg doses of unlabeled CD6- (PD1, n=8; PD2, n=16; PD3, n=15; Pcons, n=12) or DMBT1 (pbs1, n=13) derived peptides at +1 h post CLP induction. A sham group (n=3) was included. In all cases average percent survival was analyzed over time for each group and compared with the saline-treated group using the long-rank t-test (*, P<0.05; **, P<0.01; ***, P<0.001).
FIG. 8. Dose-, time- and via-dependent effects of CD6.PD3 infusion on mouse survival following CLP-induced sepsis. (A) C57BL/6 mice were i.v. infused at +1 h post CLP with saline (n=26) or single increasing doses (3 mg/kg, n=13; 6 mg/kg, n=15; and 12 mg/kg, n=8) of CD6.PD3 peptide. (B) C57BL/6 mice were i.v. infused with saline (n=4) or 6 mg/kg CD6.PD3 at different times post CLP (+1 h, n=5; +3 h, n=5; +6 h, n=6). (C) C57BL/6J mice were i.v. (n=11) or i.p. (n=9) infused with 6 mg/kg CD6.PD3 peptide or saline (n=9) at +1 h post CLP. In all cases, average percent of survival was analyzed over time and compared with the saline-treated group using a log-rank t-test (n.s., not significant; *, P<0.05. **, P<0.01; ***, P<0.001).
FIG. 10. Additive effects of combined administration of CD6.PD3 plus Imipenem/Cilastatin on mouse survival following CLP-induced sepsis. C57BL/6J mice were therapeutically infused at +1 h post CLP with saline (n=36), CD6.PD3 (6 mg/kg i.v.; n=25), Imipenem/Cilastatin (I/C, 50 mg/kg/12 h i.p.; n=9) or a combination of the two later (I/C+PD3, n=11). In all cases average percent survival was analyzed over time for each group and compared to the I/C plus CD6.PD3 group using the long-rank t-test (**, P<0.02; ***, P<0.002).
Animal procedures were approved by the Animal Experimentation Ethical Committee, University of Barcelona. High-grade mortality (≥90% mortality within the first 48-72 h) CLP-induced septic shock was induced in 8-10 week old C57BL/6J male mice (20-25 g; Charles River) as previously reported (Martinez-Florensa M, et al., 2017, Protective Effects of Human and Mouse Soluble Scavenger-Like CD6 Lymphocyte Receptor in a Lethal Model of Polymicrobial Sepsis, Antimicrob Agents Chemother 61:e01391-16).
Survival assays were analyzed by a Log-Rank χ^2 test using GraphPad Prism software. The significance of differences between experimental groups was determined by 2-tailed paired T test with 95% of confidence intervals (CI). P values were considered significant when P<0.05. Statistical analysis (mean±SEM) was performed using a 2-tailed Mann-Whitney test, with 95% of Cl.

[3] = tested on: G+ and G− bacterial suspensions (including MDR strains); assay: Bacterial agglutination assay; format: cell-based; details: peptide 5, 50 and 200 μg/mL; G+ and G− bacterial suspensions incl. MDR strains
Procedure: FIG. 2. Bacterial agglutination properties of CD6-derived peptides. Increasing concentrations (5, 50 and 200 μg/mL) of the indicated CD6 (PD1, PD2, and PD3), DMBT-1 (pbs1; C+) and CD5 (PD2; C-)-derived peptides were incubated for 2 h at room temperature in 96-well U-bottomed plates with alive bacterial cell suspensions (75×10^6 CFU/mL) in TTC buffer (50 mM Tris pH 7.5 plus 150 mM NaCl, 0.1% Tween 20, and 1 mM Ca^2+). Bacterial agglutination was scored and condensed by two independent observers as −, +/−, +, ++ or +++. (A) Summary of the agglutination results obtained with the indicated panel of Gram-negative (Multidrug resistant Acinetobacter baumanii clinical isolate; Enterobacter cloacae ATCC 23355; Escherichia coli ATCC 25922; Klebsiella pneumoniae ATCC 13883; […]; Pseudomonas aeruginosa ATCC 27853) and Gram-positive (Staphyloccocus aureus ATCC 25923; Methicilin-resistant Staphylococus aureus (MRSA) clinical isolate) bacterial strains. (B) Representative agglutination results obtained for the MRSA clinical isolate.
5×10^8 colony-forming units (CFU)/mL diluted in TTC buffer (50 mM Tris pH 7.5 plus 150 mM NaCl, 0.1% Tween 20, and 1 mM Ca^2+) were mixed (1:1) with different peptide concentrations (0-200 μg/mL) in 96 U-bottomed well microtiter plates (Biofil) (Bikker F J, et al., 2002, Identification of the bacteria-binding peptide domain on salivary agglutinin (gp-340/DMBT1), a member of the scavenger receptor cysteine-rich superfamily, J Biol Chem 277:32109-15). After overnight incubation at 37° C., bacterial agglutination was examined by light microscopy and scored from -(absent) to +++ (maximal) by two independent observers. […]

**Q.** Which “hydrodynamic size, first (or single) peak” value (“hydrodynamic size, first” for short) [1] does the source give for GQVEVHFRGVW (CD6.PD3) here?
**A.** 630±3 nm

**Q.** And the “hydrodynamic size, second peak” value [1]?
**A.** 5151±7 nm

**Q.** And the “survival rate post CLP” value ([2]; 3 mg/kg i.v. at +1 h post CLP, FIG. 8A)?
**A.** 23.08%

**Q.** And the “survival, i.v. versus i.p. pathway” value ([2]; 6 mg/kg at +1 h post CLP, FIG. 8C)?
**A.** No significant differences

**Q.** What about the “survival rate post CLP” value ([2]; 6 mg/kg i.v. at +1 h post CLP, FIG. 8A) of the same sequence?
**A.** 37.5%

**Q.** What about the “survival rate post CLP” value ([2]; 6 mg/kg i.v. at +1 h post CLP, FIG. 8B) of the same sequence?
**A.** 40%

**Q.** What about the “survival rate post CLP” value ([2]; 6 mg/kg i.v. at +3 h post CLP, FIG. 8B) of the same sequence?
**A.** 20%

**Q.** And the “survival rate post CLP” value ([2]; 12 mg/kg i.v. at +1 h post CLP, FIG. 8A)?
**A.** 40%

**Q.** And the mice survival ([2]; +1 h post CLP, CD6.PD3 6 mg/kg i.v., Imipenem/Cilastatin 50 mg/kg/12 h i.p., FIG. 10)?
**A.** 30.8%

**Q.** What about the “effect on mice survival, in words” value [2] of the same sequence?
**A.** improves the survival

**Q.** What about the survival [2] of the same sequence?
**A.** 36.36%

**Q.** What about the bacterial agglutination [3] of the same sequence?
**A.** dose-dependent agglutination

**Q.** With GRVEMLEHGEW [CD6.PD2] as the sequence, how does the “hydrodynamic size, first” value [1] read?
**A.** 379±5 nm

**Q.** And the survival [2]?
**A.** 12.5%

**Q.** And the bacterial agglutination [3]?
**A.** not and lower bacterial agglutination properties

**Q.** For GTVEVRLEASW [CD6.PD1], which “hydrodynamic size, first” value [1] is on record?
**A.** 321±5 nm

**Q.** What about the “hydrodynamic size, second peak” value [1] of the same sequence?
**A.** 1484±8 nm

**Q.** What about the “effect on mice survival, in words” value [2] of the same sequence?
**A.** No significant effects

**Q.** And the bacterial agglutination [3]?
**A.** dose-dependent agglutination
